Several values for one entry are separate records, joined by “and”; a condition that tells them apart may be missing. Equal values may be shown once.
What was measured:
Huh7 cells = test: Apoptosis analysis by Annexin V-PI flow cytometry; type: cell-based, human; settings: for 5-fluorouracil-induced apoptosis: 5-fluorouracil 150 µg/ml for 48 hrs; for STS-induced apoptosis: STS 1 μg/ml for 6 hrs; for Cisplatin-induced apoptosis: cisplatin 5 μg/ml for 48 hrs
Method: Cells were treated with cisplatin (5 μg/ml) or 5-fluorouracil ([…]) for 48 hrs, apoptosis inducer staurosporin (STS, 1 μg/ml) for 6 hrs. Cells would then be subsequently harvested and stained in binding buffer, propidium iodide (PI) and FITC-conjugated Annexin V as provided by the Annexin-V FLUOS Staining Kit (Roche Diagnostics) according to manufacturer's instructions. Analysis was determined by a FACS Canto II (BD Biosciences) and FlowJo software (Tree Star, Inc.).
The effect of ANXA3 on resistance to apoptosis and chemotherapy was investigated by Annexin V-PI staining followed by flow cytometry analysis. To investigate whether ANXA3 expression in HCC confers enhanced resistance to chemotherapy and apoptosis, Huh7 cells with or without ANXA3 repressed were treated with the apoptosis inducer staurosporin (STS) or chemotherapeutic reagents, 5-fluorouracil (5-FU) or cisplatin, in vitro and analyzed for apoptotic/necrotic cells by flow cytometry. […] Upon stable ANXA3 knockdown in Huh7 and PLC8024 HCC cells, HCC cells became less resistant to the apoptosis inducer, staurosporin (STS) and chemotherapy, 5-fluorouracil and cisplatin, resulting in a significant increase in apoptotic/necrotic cells.

[1] = system: HCC Huh7 cells or HCC primary cells; test: Subcutaneous HCC xenograft treatment in NOD-SCID mice; type: in vivo
Method: Immunodeficient NOD-SCID mice transplanted subcutaneously with HCC Huh7 cells or HCC primary cells were injected with PBS, mouse IgG control ANXA3 mAb, cisplatin or a combination of ANXA3 mAb and cisplatin over a period of 3 weeks (FIGS. 4A, B and C).

[2] = Huh7 ANXA3 repressed clones (two clones, values not assigned)

In the case of O=c1[nH]cc(F)c(=O)[nH]1 [5-fluorouracil], the 5-fluorouracil-induced apoptosis (Huh7 cells; [2]) is reported as 39.4% and 55.51% and the 5-fluorouracil-induced apoptosis (Huh7 cells; Huh7 control (NTC) cells) is reported as 30.1%.

CN[C@@H]1C[C@H]2O[C@@](C)([C@@H]1OC)n1c3ccccc3c3c4c(c5c6ccccc6n2c5c31)C(=O)NC4 [STS, staurosporin] was tested, and the STS-induced apoptosis (Huh7 cells; [2]) was 53.58% and 52.3% and the STS-induced apoptosis (Huh7 cells; Huh7 control (NTC) cells) was 43.72%.

For N.N.[Cl][Pt][Cl] [cisplatin, reference compound], the Cisplatin-induced apoptosis (Huh7 cells; [2]) was 38.4% and 41.1%, the Cisplatin-induced apoptosis (Huh7 cells; Huh7 control (NTC) cells) was 26.73% and the “tumor formation after serial transplantation of residual tumor into secondary mouse recipients” value ([1]; FIG. 4D) was “resulted in tumor formation and recurrence”. The “tumor growth / tumor volume” value ([1]; NOD-SCID mice, subcutaneous transplant, injections over 3 weeks, FIG. 4A, B) was “marked reduction in tumor volume” and the “CD133+ liver CSC subset in tumor” value ([1]; flow cytometric analysis of residual tumors, FIG. 4C) was “enriched”.

From patent US10000558B2, “Use of annexin A3 as a diagnostic and prognostic biomarker and therapeutic target for treating hepatocellular carcinoma” (The University of Hong Kong, priority 2013, dated 2018)
